Assay results: patent US20160376659A1, “Breast Cancer Biomarker” (The University of Manchester, priority 2015, published 2016)

Legend:
[1] = system: patient-derived ER+ tumour cells; assay: Mammosphere self-renewal of patient-derived ER+ tumour cells; assay type: cell-based, human; settings: 10^−6 M 4-hydroxy-tamoxifen vs ethanol control; secondary mammospheres 7-9 days
ER+ BC = assay: Tamoxifen trial study (SBII:2a), survival stratified by ALDH1; assay type: in vivo, human; settings: 322 pre-menopausal ER+ BC patients; 2 years adjuvant tamoxifen vs no systemic treatment; ALDH1 dichotomised at median
[2] = system: NOTCH4 intracellular domain; assay: NOTCH4 intracellular domain Western Blot in MCF-7 endocrine-resistant cells; assay type: cell-based, human; settings: endocrine-resistant models; 72 h
Procedure: MCF7, T47D and ZR-75-1 cell lines were purchased from American Tissue Culture Collection (ATCC) and cultured in DMEM/F-12, GlutaMAX (Gibco) with 10% FBS (Gibco). […] MCF7 resistant cell lines were authenticated by comparative karyotyping to ATCC-derived MCF7. Proteins were extracted with Protein Lysis Buffer (25 mM HEPES, 50 mM NaCl, 30 mM NaPP, 50 mM NaF, 1% Triton-X-100, 10% Glycerol, 5 mM EDTA, Protease Inhibitor cocktail, 1 μM PMSF). Lysates were placed on a rotator for 1 hour at 4° C., then were centrifuged at 10000 g at 4° C. for 10 min, and supernatants were collected. Protein concentrations were assessed using the BCA Protein Assay Kit (Thermo Scientific, 23225). Proteins were separated on a 10% gel (Biorad, 456-1033) by SDS-PAGE at 200V for 1 hour, and then were transferred on polyvinylidene difluoride (PVDF) membranes (BioRad, 170-4157) at 25 V/1,300 mA for 15 min using a Trans Blot Turbo (BioRad, 170-4155). Membranes were blocked in a solution of PBS containing 0.05% Tween-20 and 5% skimmed milk (Marvel) for 1 h at room temperature and primary antibodies were incubated overnight at 4° C. […]

[3] = system: Notch target genes HEY1 and HES1; assay: HEY1 and HES1 expression in TAMR, FULVR and parental MCF-7 cells; assay type: cell-based, human; settings: TAMR and FULVR cell lines; 72 h
Procedure: MCF7, T47D and ZR-75-1 cell lines were purchased from American Tissue Culture Collection (ATCC) and cultured in DMEM/F-12, GlutaMAX (Gibco) with 10% FBS (Gibco). […] MCF7 resistant cell lines were authenticated by comparative karyotyping to ATCC-derived MCF7. Total RNA was extracted using the RNeasy Plus Mini Kit (QIAGEN, 74104) and the concentration and purity determined using an ND-1000 spectrophotometer (NanoDrop Technologies). Reverse transcription of 1 μg of RNA was performed with Oligo(dT) using the TaqMan Reverse Transcription Reagents from Applied Biosystems (N8080234). Samples were incubated on a thermal cycler (MJ Research) for 10 minutes at 25° C., 30 minutes at 48° C. and 5 minutes at 95° C. Quantitative real-time PCR reactions were set up in triplicate in 384-well plates and performed on the 7900 PCR machine (Applied Biosystems) using TaqMan® Universal PCR Master Mix (Applied Biosystems) and probes from Universal Probe Library (Roche). Conditions used for amplification of cDNA fragments were as follows: 95° C. for 5 min, 40 cycles of amplification-95 C for 15 sec, 60 C for 1 min. The expression levels were calculated using the ΔΔCt method and normalised to the housekeeping genes 36B4 and GAPDH. The sequences of the primers and probes used can be found in the table below.

[4] = system: CBF1-Notch transcriptional activity; assay: Notch transcriptional assay (10×CBF1-luciferase reporter); assay type: cell-based, human; settings: TAMR and FULVR cell lines; 72 h
Procedure: MCF7 resistant cell lines were authenticated by comparative karyotyping to ATCC-derived MCF7. To measure the activation of Notch dependent transcription, cells were transfected with CBF1 firefly luciferase reporter (containing 10 copies of a CBF1 consensus sequence) and CMV-Renilla luciferase reporter. Plasmids were incubated with […] (Roche, 06366244001) in a ratio of 3:1 (μl of […] of DNA) in OptiMEM (Life Technologies, 11058-021) for 15 minutes, before addition to the culture media. After 48 hours cells were lysed with 1× Passive lysis buffer (5×, Promega, E 1941), put on the rocker for 15 minutes and luminescence was assayed with the Dual-Glo Luciferase assay system (Promega, E2920) following manufacturer's instructions. Luciferase activity was measured using a luminometer (Promega, Glomax Multi+ Detection System with Instinct Software). Luminescence of the firefly luciferase was normalised to that of the renilla luciferase.

CD44^+CD24^low+ BCSCs = settings: Azzam et al., 2013; cited from earlier work
ALDH1A1 = settings: short-term administration to patients; analysis of published microarray data; cited from earlier work

With `CC/C(=C(\c1ccccc1)c1ccc(OCCN(C)C)cc1)c1ccccc1` [tamoxifen, (Z)-2-[4-(1,2-diphenylbut-1-enyl)phenoxy]-N,N-dimethylethanamine] the mammosphere self-renewal [1] was “about two-fold” and the “survival benefit from tamoxifen by epithelial ALDH1 expression” value (ER+ BC) was “improvement in survival (ie. a response to treatment) was only seen in women with low epithelial ALDH1 expression”.
With `CC(C)(C(=O)NCC(F)(F)C(F)(F)F)C(=O)N[C@@H]1C(=O)Nc2ccccc2-c2ccccc21` [RO4929097] the “levels of the active NOTCH4 intracellular domain” value [2] was “effective in reducing”, the “HEY1 and HES1 expression” value [3] was “inhibited” and the CBF1-Notch transcriptional activity [4] was “inhibited”. The “mammosphere and tumor formation” value (CD44^+CD24^low+ BCSCs) was “reduce”.
For `C[C@]12CC[C@@H]3c4ccc(O)cc4C[C@@H](CCCCCCCCC[S+]([O-])CCCC(F)(F)C(F)(F)F)[C@H]3[C@@H]1CC[C@@H]2O` (stereo partly shown) [fulvestrant], the “expression of the ALDH1A1 gene in breast tumors” value (ALDH1A1) is listed as “significantly increased”.
